Assays:
[1] = Displacement of (Z)-5-(4-(3-carboxy-3-hydroxyacryloyl)-4-(4-chlorobenzyl)piperidine-1-carbonyl)-2-(6-hydroxy-3-oxo-3H-xanthen-9-yl)benzoic acid from Influenza A virus (A/Viet Nam/1203/2004(H5N1)) recombinant C-terminal 10X-His-tagged polymerase acidic protein (1 to 209 residues) expressed in Escherichia coli BL21 (DE3) after 30 mins by fluorescence polarization assay
[2] = target: Aminopeptidase B (Homo sapiens, UniProt Q9H4A4); assay: Inhibition of aminopeptidase B (unknown origin)
Chain of Aminopeptidase B (Q9H4A4 whole entry): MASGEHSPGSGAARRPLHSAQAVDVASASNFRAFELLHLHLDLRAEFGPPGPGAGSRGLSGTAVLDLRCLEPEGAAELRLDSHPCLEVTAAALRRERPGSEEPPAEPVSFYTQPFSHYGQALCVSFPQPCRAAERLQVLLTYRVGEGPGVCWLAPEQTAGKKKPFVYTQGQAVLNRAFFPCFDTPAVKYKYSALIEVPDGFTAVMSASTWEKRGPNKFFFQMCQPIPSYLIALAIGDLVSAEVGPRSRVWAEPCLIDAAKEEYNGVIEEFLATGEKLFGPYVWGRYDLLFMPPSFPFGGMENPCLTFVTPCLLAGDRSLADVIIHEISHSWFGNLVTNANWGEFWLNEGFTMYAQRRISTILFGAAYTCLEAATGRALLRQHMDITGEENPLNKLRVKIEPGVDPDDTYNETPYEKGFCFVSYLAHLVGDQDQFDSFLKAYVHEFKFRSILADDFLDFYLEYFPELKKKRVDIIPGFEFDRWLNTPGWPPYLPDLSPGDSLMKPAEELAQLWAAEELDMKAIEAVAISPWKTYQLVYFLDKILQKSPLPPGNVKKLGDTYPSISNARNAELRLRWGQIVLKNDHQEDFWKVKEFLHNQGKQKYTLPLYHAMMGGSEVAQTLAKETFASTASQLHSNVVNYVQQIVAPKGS

[3] = target: T1, Bifunctional epoxide hydrolase 2 (Homo sapiens, UniProt P34913); assay: Inhibition of sEH (unknown origin)
T1 sequence (P34913 whole entry): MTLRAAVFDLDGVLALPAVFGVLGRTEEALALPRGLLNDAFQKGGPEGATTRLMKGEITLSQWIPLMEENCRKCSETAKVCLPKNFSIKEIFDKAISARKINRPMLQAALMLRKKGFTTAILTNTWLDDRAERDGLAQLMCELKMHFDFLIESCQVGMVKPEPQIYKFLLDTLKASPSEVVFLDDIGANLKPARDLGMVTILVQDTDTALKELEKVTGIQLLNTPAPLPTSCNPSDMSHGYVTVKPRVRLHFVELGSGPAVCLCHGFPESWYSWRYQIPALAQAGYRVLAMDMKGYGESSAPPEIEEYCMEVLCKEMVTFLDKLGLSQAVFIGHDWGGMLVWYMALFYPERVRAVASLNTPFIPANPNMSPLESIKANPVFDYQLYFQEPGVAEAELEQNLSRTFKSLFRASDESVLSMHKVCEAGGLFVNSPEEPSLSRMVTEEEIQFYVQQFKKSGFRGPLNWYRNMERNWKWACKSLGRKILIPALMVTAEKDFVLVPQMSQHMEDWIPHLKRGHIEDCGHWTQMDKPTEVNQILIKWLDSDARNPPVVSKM

## O=C(O)/C(O)=C/C(O)C1(Cc2ccc(Cl)cc2)CCN(CC2CCCCC2)CC1 (stereo not given)
[1]
  Ki: 84 nM

## CC(C)C[C@H](NC(=O)[C@@H](O)[C@H](N)CC1CCCCC1)C(=O)O
[2]
  IC50: 3500 nM

## CC(C)C[C@H](NC(=O)[C@@H](O)[C@H](N)Cc1ccccc1)C(=O)O [UBENIMEX]
[2]
  IC50: 160000 nM

## O=C(O)/C(O)=C/C(O)C1(Cc2ccc(Cl)cc2)CCN(Cc2ccccc2)CC1 (stereo not given)
[1]
  Ki: 90 nM

## O=C(Nc1ccccc1)NC1CCCCC1
[3]
  IC50: 760 nM

Reference: ChEMBL document CHEMBL3808350, “Stacking with No Planarity?” (ACS Med Chem Lett, 2016)
